From article PMC6355801, “The compound TB47 is highly bactericidal against Mycobacterium ulcerans in a Buruli ulcer mouse model” (Nature Communications, 2019)
≈ marks a conversion by molar mass, not a printed value. Where two headings read alike, the source gives them in different places.

Assays:
M. marinum = type: cell-based, Mycobacterium marinum
M. ulcerans = type: cell-based, Mycobacterium ulcerans
Mycobacterium abscessus = assay: MIC, standard broth dilution assay (CLSI); type: cell-based; conditions: 20 clinical isolates
[1] = Oral tolerability in mice; type: in vivo
Klebsiella pneumoniae = assay: MIC, standard broth dilution assay (CLSI); type: cell-based; conditions: 3 clinical isolates
THP-1 cell = assay: Cytotoxicity; type: cell-based
hERG = hERG (Homo sapiens, UniProt Q12809); assay: hERG inhibition; type: biochemical
Chain of hERG (Q12809 whole entry): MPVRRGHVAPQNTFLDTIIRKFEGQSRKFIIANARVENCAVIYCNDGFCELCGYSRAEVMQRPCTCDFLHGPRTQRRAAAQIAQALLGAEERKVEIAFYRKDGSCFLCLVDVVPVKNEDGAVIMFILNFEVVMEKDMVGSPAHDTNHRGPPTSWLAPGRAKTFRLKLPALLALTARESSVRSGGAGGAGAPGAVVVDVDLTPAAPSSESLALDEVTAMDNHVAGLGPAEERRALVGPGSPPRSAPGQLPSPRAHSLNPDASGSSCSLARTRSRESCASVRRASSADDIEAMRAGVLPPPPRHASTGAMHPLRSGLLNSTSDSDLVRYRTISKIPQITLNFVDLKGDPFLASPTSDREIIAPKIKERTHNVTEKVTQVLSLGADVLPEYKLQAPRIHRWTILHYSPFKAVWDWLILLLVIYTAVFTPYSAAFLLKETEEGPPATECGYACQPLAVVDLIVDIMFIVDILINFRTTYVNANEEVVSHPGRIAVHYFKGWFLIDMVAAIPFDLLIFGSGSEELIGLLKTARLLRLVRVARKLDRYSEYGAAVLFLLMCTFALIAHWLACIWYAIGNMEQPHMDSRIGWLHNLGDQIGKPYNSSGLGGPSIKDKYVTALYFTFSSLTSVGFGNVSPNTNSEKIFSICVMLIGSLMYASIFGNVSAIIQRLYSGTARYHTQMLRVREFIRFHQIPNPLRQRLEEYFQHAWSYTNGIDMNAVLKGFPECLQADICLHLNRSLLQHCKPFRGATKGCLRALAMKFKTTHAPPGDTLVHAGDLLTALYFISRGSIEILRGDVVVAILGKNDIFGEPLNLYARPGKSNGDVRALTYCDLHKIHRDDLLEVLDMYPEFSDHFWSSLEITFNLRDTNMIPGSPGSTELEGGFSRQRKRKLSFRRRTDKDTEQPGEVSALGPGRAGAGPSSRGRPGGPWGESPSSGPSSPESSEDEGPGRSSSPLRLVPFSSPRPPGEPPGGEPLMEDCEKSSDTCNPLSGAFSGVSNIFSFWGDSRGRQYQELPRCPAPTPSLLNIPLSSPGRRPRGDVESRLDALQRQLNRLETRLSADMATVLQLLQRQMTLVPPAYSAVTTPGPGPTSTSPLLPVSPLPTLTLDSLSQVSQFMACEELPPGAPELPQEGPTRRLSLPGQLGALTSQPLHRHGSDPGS

[2] = type: in vitro ADME, Monkey
Excerpt: (§1) Supplement 41467_2019_8464_MOESM1_ESM.docx, table 4: Table 2-3 Metabolic stability | column: T1/2 (min); Clint In Vitro (mL min^-1 gprot^-1); Clint In Vivo Extpl (mL min^-1); Clint Hep In Vivo Extpl (mL min^-1); Stability

[3] = type: in vitro ADME, Human
Excerpt: as §1

Pseudomonas aeruginosa = assay: MIC, standard broth dilution assay (CLSI); type: cell-based; conditions: 3 clinical isolates
[4] = system: M. ulcerans strains 1059 and 1615; assay: MIC on 7H11 agar plates; type: cell-based; conditions: Mycobacterium ulcerans, 2 strains (1059 and 1615)
Acinetobacter baumannii = assay: MIC, standard broth dilution assay (CLSI); type: cell-based; conditions: 3 clinical isolates
Staphylococcus aureus = assay: MIC, standard broth dilution assay (CLSI); type: cell-based; conditions: 1 clinical isolate
CYP 2C19 = CYP 2C19 (Homo sapiens, UniProt P33261); type: in vitro ADME; conditions: read-out: CYP Inhibition (IC50)
Chain of CYP 2C19 (P33261 whole entry): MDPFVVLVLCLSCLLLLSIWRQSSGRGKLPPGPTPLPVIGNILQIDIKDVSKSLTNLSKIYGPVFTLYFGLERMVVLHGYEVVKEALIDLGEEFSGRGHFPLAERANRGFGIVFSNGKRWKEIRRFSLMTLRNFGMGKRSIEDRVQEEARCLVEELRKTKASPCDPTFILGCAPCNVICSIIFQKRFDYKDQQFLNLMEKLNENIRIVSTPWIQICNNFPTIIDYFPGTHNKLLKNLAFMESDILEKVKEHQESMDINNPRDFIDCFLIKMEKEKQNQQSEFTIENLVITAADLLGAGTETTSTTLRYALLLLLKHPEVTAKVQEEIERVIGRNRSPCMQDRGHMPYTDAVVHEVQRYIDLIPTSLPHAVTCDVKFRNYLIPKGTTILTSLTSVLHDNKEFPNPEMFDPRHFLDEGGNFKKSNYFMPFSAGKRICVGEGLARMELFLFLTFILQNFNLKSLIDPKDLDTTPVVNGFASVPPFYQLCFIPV

Enterococcus faecium = assay: MIC, standard broth dilution assay (CLSI); type: cell-based; conditions: 1 clinical isolate
[5] = system: Mycobacterium bovis BCG Tice; type: cell-based; conditions: 1 strain
M. smegmatis = assay: microbe, parasite or virus in culture; type: cell-based, Mycobacterium smegmatis
[6] = design: species or system BALB/c mice; conditions: mouse, in vivo
Description: BALB/c mice were given 2 mg kg^−1 TB47 intravenously or 10 mg kg^−1 orally. […] Footpads and lung tissues were collected at 6, 12, 24, and 48 h post-dose for oral group. After extraction and centrifuge at 4 °C, TB47 concentrations were determined by Liquid Chromatograph-Mass Spectrometer (LC-MS).

[7] = Long-term administration study in rats; type: in vivo; conditions: 10, 30, or 100 mg kg^−1 orally daily for 30 days, male and female rats
[8] = type: in vitro ADME, Dog
Excerpt: as §1

[9] = type: in vitro ADME, Mouse
Excerpt: as §1

M. ulcerans (AlMu) = assay: Time kill assay and CFU-based MBC in liquid culture; type: cell-based, Mycobacterium ulcerans
Description: Serial dilutions of drug-containing solutions and autoluminescent mycobacteria broth culture (OD600 of 0.3 to 1.0) were prepared. RLU counts from the same batch of triplicate samples were measured according to the designed time points. Ninety-six-well plates were measured as rendering the amount of light by using a Veritas™ Microplate Luminometer Operating Manual (Turner BioSystems). MIClux was determined as the lowest concentration that can inhibit > 90% RLUs compared with that from the untreated controls[6],[18]. The time-killing curves and MIClux of autoluminescent strains were determined by detecting RLUs from these samples. For M. ulcerans and M. marinum strains, the incubation time for MIClux reading was 7 days and 3 days, respectively. The minimum bactericidal concentration (MBC) was defined as the lowest concentration of drug that killed ≥ 99% of the CFU compared with the CFU count of the initial inoculum used for the liquid activity assays, which was adopted from reference. […] The concentrations used were twofold series of dilutions for this purpose. The incubation time for RLU reading was 14 days for the MBD experiment and the light from each 1.5 mL tube containing total 500 μL culture was detected using Promega GloMax 20/20n. […] The concentrations used were fivefold series of dilutions for this purpose. Each above experiment was performed in triplicate (three independent experiments) or more by independent persons and from three or more independent cultures. The representative results are shown.

CYP 3A4 = CYP 3A4 (Homo sapiens, UniProt P08684); conditions: read-out: CYP Inhibition (IC50)
Chain of CYP 3A4 (P08684 whole entry): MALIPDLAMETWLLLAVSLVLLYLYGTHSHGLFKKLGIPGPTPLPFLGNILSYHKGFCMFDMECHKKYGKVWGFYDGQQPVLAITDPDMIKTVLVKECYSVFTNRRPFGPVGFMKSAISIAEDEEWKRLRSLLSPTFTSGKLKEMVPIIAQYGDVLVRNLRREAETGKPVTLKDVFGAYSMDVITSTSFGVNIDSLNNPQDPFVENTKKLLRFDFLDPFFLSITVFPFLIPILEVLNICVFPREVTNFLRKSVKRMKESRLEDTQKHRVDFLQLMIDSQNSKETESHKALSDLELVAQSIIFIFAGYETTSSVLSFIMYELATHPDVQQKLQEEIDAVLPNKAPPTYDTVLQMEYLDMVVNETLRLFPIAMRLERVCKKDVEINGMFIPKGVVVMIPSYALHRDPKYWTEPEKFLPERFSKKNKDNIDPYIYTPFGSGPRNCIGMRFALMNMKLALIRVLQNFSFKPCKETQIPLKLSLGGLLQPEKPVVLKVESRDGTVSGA

[10] = not told
CYP 1A2 = CYP 1A2 (Homo sapiens, UniProt P05177); assay: CYP inhibition; type: in vitro ADME
Chain of CYP 1A2 (P05177 whole entry): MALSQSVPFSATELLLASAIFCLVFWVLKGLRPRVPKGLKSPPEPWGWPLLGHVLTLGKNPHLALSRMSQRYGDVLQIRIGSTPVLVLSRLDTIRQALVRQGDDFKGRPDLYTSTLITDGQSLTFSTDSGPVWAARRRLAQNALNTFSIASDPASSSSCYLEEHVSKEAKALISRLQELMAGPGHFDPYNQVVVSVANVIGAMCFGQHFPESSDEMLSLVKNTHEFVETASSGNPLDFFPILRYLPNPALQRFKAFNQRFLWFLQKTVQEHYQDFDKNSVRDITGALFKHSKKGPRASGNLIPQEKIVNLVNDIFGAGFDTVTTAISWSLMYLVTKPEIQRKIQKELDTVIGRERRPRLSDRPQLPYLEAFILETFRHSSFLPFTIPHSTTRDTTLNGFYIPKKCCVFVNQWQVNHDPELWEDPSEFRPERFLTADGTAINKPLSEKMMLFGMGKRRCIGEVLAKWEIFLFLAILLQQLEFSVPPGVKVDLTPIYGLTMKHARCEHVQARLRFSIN

CYP 2C9 = CYP 2C9 (Homo sapiens, UniProt P11712); assay: CYP inhibition; type: in vitro ADME
Chain of CYP 2C9 (P11712 whole entry): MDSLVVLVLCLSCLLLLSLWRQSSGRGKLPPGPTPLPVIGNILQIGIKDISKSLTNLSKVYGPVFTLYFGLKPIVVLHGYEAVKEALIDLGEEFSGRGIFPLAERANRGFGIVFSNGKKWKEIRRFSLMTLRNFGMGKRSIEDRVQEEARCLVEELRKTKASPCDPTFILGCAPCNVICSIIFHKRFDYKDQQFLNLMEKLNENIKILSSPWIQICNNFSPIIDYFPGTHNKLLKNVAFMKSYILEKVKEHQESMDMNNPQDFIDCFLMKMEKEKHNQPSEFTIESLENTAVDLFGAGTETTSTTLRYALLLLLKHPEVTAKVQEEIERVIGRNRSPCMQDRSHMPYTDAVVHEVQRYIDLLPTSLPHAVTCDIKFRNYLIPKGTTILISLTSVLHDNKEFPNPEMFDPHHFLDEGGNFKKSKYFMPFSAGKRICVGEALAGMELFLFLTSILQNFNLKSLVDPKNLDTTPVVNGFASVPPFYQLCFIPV

Enterococcus faecalis = assay: MIC, standard broth dilution assay (CLSI); type: cell-based; conditions: 1 clinical isolate
Escherichia coli = assay: MIC, standard broth dilution assay (CLSI); type: cell-based; conditions: 5 clinical isolates
Candida albicans = assay: MIC, standard broth dilution assay (CLSI); type: cell-based; conditions: 2 clinical isolates
[11] = system: most of the clinical strains; assay: MIC, standard broth dilution assay (CLSI), summary for clinical strains; type: cell-based
[12] = type: in vitro ADME, Rat
Excerpt: as §1

CYP 2D6 = CYP 2D6 (Homo sapiens, UniProt P10635); type: in vitro ADME; conditions: read-out: CYP Inhibition (IC50)
Chain of CYP 2D6 (P10635 whole entry): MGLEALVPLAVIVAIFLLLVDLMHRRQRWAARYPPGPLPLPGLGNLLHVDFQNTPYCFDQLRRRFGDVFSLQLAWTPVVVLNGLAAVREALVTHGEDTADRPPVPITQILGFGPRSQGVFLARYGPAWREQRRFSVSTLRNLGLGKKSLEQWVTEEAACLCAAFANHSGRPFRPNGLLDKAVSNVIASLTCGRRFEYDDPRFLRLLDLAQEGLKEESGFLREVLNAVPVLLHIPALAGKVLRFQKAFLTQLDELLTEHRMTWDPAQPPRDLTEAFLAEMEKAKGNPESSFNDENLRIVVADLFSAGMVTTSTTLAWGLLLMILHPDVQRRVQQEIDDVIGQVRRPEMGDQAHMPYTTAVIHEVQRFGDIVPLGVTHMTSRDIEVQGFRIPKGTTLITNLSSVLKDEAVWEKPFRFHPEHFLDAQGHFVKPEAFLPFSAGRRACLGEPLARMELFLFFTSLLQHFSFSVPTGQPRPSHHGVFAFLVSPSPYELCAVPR

Salmonella enteriditis = assay: MIC, standard broth dilution assay (CLSI); type: cell-based; conditions: 1 clinical isolate

CO[C@H]1/C=C/O[C@@]2(C)Oc3c(C)c(O)c4c(O)c(c(/C=N/N5CCN(C)CC5)c(O)c4c3C2=O)NC(=O)/C(C)=C\C=C\[C@H](C)[C@H](O)[C@@H](C)[C@@H](O)[C@@H](C)[C@H](OC(C)=O)[C@@H]1C [RIF, rifampin]
MIClux (M. marinum; M. marinum Wild-type (Autoluminescent strain)): 0.25 to 1.0 µg/mL
MIClux (M. marinum; M. marinum Wild-type:: qcrB^WT, over-expression of wild-type qcrB): 0.25 to 1.0 µg/mL
MIClux (M. marinum; M. marinum Wild-type:: vector (empty plasmid)): 0.25 to 1.0 µg/mL
MIClux (M. ulcerans; M. ulcerans Wild-type (AlMu 1059)): 0.06 to 0.25 µg/mL
MIClux (M. ulcerans; M. ulcerans Wild-type:: qcrB^WT, over-expression of wild-type qcrB): 0.06 to 0.25 µg/mL
MIClux (M. ulcerans; M. ulcerans Wild-type:: vector (empty plasmid)): 0.06 to 0.25 µg/mL

COc1ccn2nc(C)c(C(=O)NCc3ccc(N4CCC(c5ccc(OC(F)(F)F)cc5)CC4)cc3)c2c1 [TB47]
MIC (Mycobacterium abscessus): >128 µg/mL
tolerability ([1]; oral 200 mg kg^−1 daily for 4 weeks, mice): well tolerated
tolerability ([1]; single oral administration of 2000 mg kg^−1, mice): well tolerated
MIC (Klebsiella pneumoniae): >128 µg/mL
IC50 (THP-1 cell): 50 µM
IC50 (hERG): > 30 µM
Stability [2]: High
Clint Hep In Vivo Extpl ([2]; monkey): 0.1 mL/min
Clint In Vitro ([2]; monkey): 0.0 mL min^-1 gprot^-1
Clint In Vivo Extpl ([2]; monkey): 0.1 mL/min
T1/2 ([2]; monkey): 64.793 days
Stability [3]: High
Clint Hep In Vivo Extpl ([3]; human): 0.0 mL/min
Clint In Vitro ([3]; human): 0.0 mL min^-1 gprot^-1
Clint In Vivo Extpl ([3]; human): 0.0 mL/min
T1/2 ([3]; human): Stable
MIC (Pseudomonas aeruginosa): >128 µg/mL
MIC [4]: 1.6 ng/mL (≈ 0.00297 µM)
MIC (Acinetobacter baumannii): >128 µg/mL
MIC (Staphylococcus aureus): >128 µg/mL
IC50 (CYP 2C19): > 10 µM
MIC (Enterococcus faecium): >128 µg/mL
MIC (M. marinum; Mycobacterium marinum, 1 strain): 1 to 8 ng/mL
MIC [5]: 3 ng/mL (≈ 0.00557 µM)
IC50 (VERO cell): > 100 µM
MIC (M. smegmatis; Mycobacterium smegmatis, 1 strain): 50 µg/mL (≈ 92.8 µM)
bioavailability [6]: 38.1%
MRT(0-t) ([6]; iv, 2 mg/kg): 14.7 h
MRT(0-∞) ([6]; iv, 2 mg/kg): 22.3 h
t 1/2z ([6]; iv, 2 mg/kg): 17.7 h
MRT(0-t) ([6]; po, 10 mg/kg): 20.2 h
MRT(0-∞) ([6]; po, 10 mg/kg): 52.0 h
t 1/2z ([6]; po, 10 mg/kg): 35.6 h
tolerability [7]: well tolerated without any meaningful clinical signs of toxicity
Stability [8]: High
Clint Hep In Vivo Extpl ([8]; dog): 17.1 mL/min
Clint In Vitro ([8]; dog): 3.5 mL min^-1 gprot^-1
Clint In Vivo Extpl ([8]; dog): 19.0 mL/min
T1/2 ([8]; dog): 598 min
Stability [9]: High
Clint Hep In Vivo Extpl ([9]; mouse): 0.8 mL/min
Clint In Vitro ([9]; mouse): 16.5 mL min^-1 gprot^-1
Clint In Vivo Extpl ([9]; mouse): 1.1 mL/min
T1/2 ([9]; mouse): 127 min
bactericidal activity compared with 0.2 µg mL^−1 rifampin (M. ulcerans (AlMu); TB47 at 0.008 µg mL^−1 or higher, time kill assay): more potent
minimum bactericidal concentration (MBC) (M. ulcerans (AlMu); killed ≥ 99% of CFU of the initial inoculum): 6.4 ng/mL (≈ 0.0119 µM)
concentration demonstrating bactericidal activity (M. ulcerans (AlMu); standard time kill assay, AlMu in liquid culture): ≥ 0.0016 µg/mL
IC50 (CYP 3A4; 3A4-Midazolam): > 10 µM
IC50 (CYP 3A4; 3A4-Testerone): > 10 µM
Conclusion: P-gp substrate [10]: Not P-gp substrate
Conclusion: permeability [10]: High permeability
Efflux Ratio [10]: 1.07
IC50 (CYP 1A2): > 10 µM
IC50 (CYP 2C9): > 10 µM
MIC (Enterococcus faecalis): >128 µg/mL
MIC (Escherichia coli): >128 µg/mL
MIC (Candida albicans): >128 µg/mL
MICs [11]: > 128 µg/mL
Stability [12]: High
Clint Hep In Vivo Extpl ([12]; rat): 5.4 mL/min
Clint In Vitro ([12]; rat): 16.5 mL min^-1 gprot^-1
Clint In Vivo Extpl ([12]; rat): 7.4 mL/min
T1/2 ([12]; rat): 128 min
IC50 (CYP 2D6): > 10 µM
MIC (Salmonella enteriditis): >128 µg/mL

NNC(=O)c1ccncc1 [isoniazid]
MIC (M. smegmatis; MsmΔcydAB): 4 µg/mL (≈ 29.2 µM)
MIC (M. smegmatis; MsmΔcydAB::cydAB^Mtb): 4 µg/mL (≈ 29.2 µM)
MIC (M. smegmatis; MsmΔcydAB::cydAB^Mu): 4 µg/mL (≈ 29.2 µM)
MIC (M. smegmatis; Mycolicibacterium smegmatis): 4 µg/mL (≈ 29.2 µM)
